Measured values: PubChem BioAssay AID1745844 (Carcinogenic Potency Database (CPDB), 2022)
The source made the active and inactive calls. No rule for the calls is given here.

Tested on: rodent lifetime carcinogenesis bioassay, tumor incidence TD50
Assay: chronic cancer bioassays in animals – CPDB, compiled studies (AID 1745844)

Work on CN(N=O)C(N)=O yielded a TD50 (monkey, strain Cynomolgus [Macaca fascicularis], both sexes, in feed, site: any site (literature study), lesion: benign tumor, dosed 928 weeks, study length 1135 weeks) of 19.1 mg/kg/day, a TD50 (monkey, strain Cynomolgus [Macaca fascicularis], both sexes, in feed, site: any site (literature study), lesion: malignant tumor, dosed 928 weeks, study length 1135 weeks) of 4 mg/kg/day and a TD50 (monkey, strain Cynomolgus [Macaca fascicularis], both sexes, in feed, site: any site (literature study), lesion: several types, types named in the paper, dosed 928 weeks, study length 1135 weeks) of 2.64 mg/kg/day. It also gave a TD50 (monkey, strain Cynomolgus [Macaca fascicularis], both sexes, in feed, site: colon, lesion: leiomyosarcoma, dosed 928 weeks, study length 1135 weeks) of 34.5 mg/kg/day, a TD50 (monkey, strain Cynomolgus [Macaca fascicularis], both sexes, in feed, site: esophagus, lesion: several types, types named in the paper, dosed 928 weeks, study length 1135 weeks) of 7.71 mg/kg/day and a TD50 (monkey, strain Cynomolgus [Macaca fascicularis], both sexes, in feed, site: esophagus, lesion: squamous-cell carcinoma, dosed 928 weeks, study length 1135 weeks) of 10.5 mg/kg/day. For the same compound, the TD50 (monkey, strain Cynomolgus [Macaca fascicularis], both sexes, in feed, site: esophagus, lesion: squamous-cell papilloma, dosed 928 weeks, study length 1135 weeks) was 29.2 mg/kg/day, the TD50 (monkey, strain Cynomolgus [Macaca fascicularis], both sexes, in feed, site: heart, lesion: rhabdomyoblastoma, dosed 928 weeks, study length 1135 weeks) was 66.3 mg/kg/day and the TD50 (monkey, strain Cynomolgus [Macaca fascicularis], both sexes, in feed, site: oral cavity, lesion: several types, types named in the paper, dosed 928 weeks, study length 1135 weeks) was 2.65 mg/kg/day. For the same compound, the TD50 (monkey, strain Cynomolgus [Macaca fascicularis], both sexes, in feed, site: palate, soft, lesion: squamous-cell carcinoma, dosed 928 weeks, study length 1135 weeks) was 7.95 mg/kg/day, the TD50 (monkey, strain Cynomolgus [Macaca fascicularis], both sexes, in feed, site: pharynx, lesion: squamous-cell carcinoma, dosed 928 weeks, study length 1135 weeks) was 82.2 mg/kg/day and the TD50 (monkey, strain Cynomolgus [Macaca fascicularis], both sexes, in feed, site: skull, lesion: rhabdomyosarcoma, dosed 928 weeks, study length 1135 weeks) was 23.9 mg/kg/day. It also gave a TD50 (monkey, strain Cynomolgus [Macaca fascicularis], both sexes, in feed, site: stomach, lesion: adenocarcinoma, dosed 928 weeks, study length 1135 weeks) of 66.3 mg/kg/day, a TD50 (monkey, strain Cynomolgus [Macaca fascicularis], both sexes, in feed, site: tongue, lesion: squamous-cell papilloma, dosed 928 weeks, study length 1135 weeks) of 7.95 mg/kg/day and a TD50 (monkey, strain Cynomolgus [Macaca fascicularis], both sexes, in feed, site: upper gastrointestinal tract, lesion: squamous-cell carcinoma, dosed 928 weeks, study length 1135 weeks) of 4.52 mg/kg/day. The TD50 (monkey, strain Rhesus [Macaca mulatta], both sexes, in feed, site: any site (literature study), lesion: malignant tumor, dosed 928 weeks, study length 1139 weeks) was 6.75 mg/kg/day, the TD50 (monkey, strain Rhesus [Macaca mulatta], both sexes, in feed, site: cheek pouch, lesion: squamous-cell carcinoma, dosed 928 weeks, study length 1139 weeks) was 95.6 mg/kg/day and the TD50 (monkey, strain Rhesus [Macaca mulatta], both sexes, in feed, site: epiglottis, lesion: squamous-cell carcinoma, dosed 928 weeks, study length 1139 weeks) was 42.8 mg/kg/day. The TD50 (monkey, strain Rhesus [Macaca mulatta], both sexes, in feed, site: esophagus, lesion: squamous-cell carcinoma, dosed 928 weeks, study length 1139 weeks) was 8.2 mg/kg/day, the TD50 (monkey, strain Rhesus [Macaca mulatta], both sexes, in feed, site: gingiva, lesion: squamous-cell carcinoma, dosed 928 weeks, study length 1139 weeks) was 62.6 mg/kg/day and the TD50 (monkey, strain Rhesus [Macaca mulatta], both sexes, in feed, site: larynx, lesion: squamous-cell carcinoma, dosed 928 weeks, study length 1139 weeks) was 95.6 mg/kg/day. For the same compound, the TD50 (monkey, strain Rhesus [Macaca mulatta], both sexes, in feed, site: oral cavity, lesion: several types, types named in the paper, dosed 928 weeks, study length 1139 weeks) was 15.7 mg/kg/day, the TD50 (monkey, strain Rhesus [Macaca mulatta], both sexes, in feed, site: palate, soft, lesion: squamous-cell carcinoma, dosed 928 weeks, study length 1139 weeks) was 102 mg/kg/day and the TD50 (monkey, strain Rhesus [Macaca mulatta], both sexes, in feed, site: pharynx, lesion: squamous-cell carcinoma, dosed 928 weeks, study length 1139 weeks) was 44.2 mg/kg/day. The TD50 (monkey, strain Rhesus [Macaca mulatta], both sexes, in feed, site: stomach, lesion: adenocarcinoma, dosed 928 weeks, study length 1139 weeks) was 42.8 mg/kg/day, the TD50 (monkey, strain Rhesus [Macaca mulatta], both sexes, in feed, site: tongue, lesion: squamous-cell carcinoma, dosed 928 weeks, study length 1139 weeks) was 72.9 mg/kg/day and the TD50 (monkey, strain Rhesus [Macaca mulatta], both sexes, in feed, site: upper gastrointestinal tract, lesion: squamous-cell carcinoma, dosed 928 weeks, study length 1139 weeks) was 7.18 mg/kg/day. The TD50 (mouse, strain C3H (MTV+), males, in drinking water, site: liver, lesion: neoplastic nodule, dosed 30 weeks, study length 54 weeks) was 2.53 mg/kg/day, the TD50 (mouse, strain C3H (MTV+), males, in drinking water, site: lung, lesion: adenoma, dosed 30 weeks, study length 54 weeks) was 0.794 mg/kg/day and the TD50 (mouse, strain C3H (MTV+), males, in drinking water, site: spleen, lesion: hemangioendothelial sarcoma, dosed 30 weeks, study length 54 weeks) was 1.23 mg/kg/day. It also gave a TD50 (mouse, strain C3H (MTV+), males, in drinking water, site: stomach, glandular, lesion: adenocarcinoma, dosed 30 weeks, study length 54 weeks) of 6.19 mg/kg/day, a TD50 (rat, strain Fischer 344, males, by gavage, site: forestomach, lesion: one or several types, types not named, dosed 28 weeks, study length 104 weeks) of 0.0927 mg/kg/day and a TD50 (rat, strain Fischer 344, males, by gavage, site: liver, lesion: one or several types, types not named, dosed 28 weeks, study length 104 weeks) of 11.6 mg/kg/day. For the same compound, the TD50 (rat, strain Fischer 344, males, by gavage, site: lung, lesion: several types, types named in the paper, dosed 28 weeks, study length 104 weeks) was 0.357 mg/kg/day and the TD50 (rat, strain Fischer 344, males, by gavage, site: nervous system, lesion: several types, types named in the paper, dosed 28 weeks, study length 104 weeks) was 2.03 mg/kg/day.

In the case of O=C(O)C1=NN(c2ccc(S(=O)(=O)O)cc2)C(=O)C1N=Nc1ccc(S(=O)(=O)O)cc1 (configuration not stated), the TD50 (mouse, strain Charles River CD1, females, in feed, site: all sites, lesion: malignant lymphoma, lymphocytic type, dosed 104 weeks, study length 104 weeks) is reported as 1430 mg/kg/day (inactive), the carcinogen call (mouse, strain Charles River CD1, females, in feed, site: any site (literature study), lesion: benign tumor, dosed 104 weeks, study length 104 weeks) is reported as “negative (inactive)” and the TD50 (mouse, strain Charles River CD1, females, in feed, site: any site (literature study), lesion: malignant tumor, dosed 104 weeks, study length 104 weeks) is reported as 1560 mg/kg/day (inactive). For the same compound, the carcinogen call (mouse, strain Charles River CD1, females, in feed, site: liver, lesion: hepatocellular adenocarcinoma, dosed 104 weeks, study length 104 weeks) was “negative (inactive)”, the TD50 (mouse, strain Charles River CD1, females, in feed, site: liver, lesion: hepatocellular adenoma, dosed 104 weeks, study length 104 weeks) was 200000 mg/kg/day (inactive) and the carcinogen call (mouse, strain Charles River CD1, females, in feed, site: lung, lesion: alveolar/bronchiolar adenocarcinoma, dosed 104 weeks, study length 104 weeks) was “negative (inactive)”. The carcinogen call (mouse, strain Charles River CD1, females, in feed, site: lung, lesion: alveolar/bronchiolar adenoma, dosed 104 weeks, study length 104 weeks) was “negative (inactive)”, the TD50 (mouse, strain Charles River CD1, males, in feed, site: all sites, lesion: malignant lymphoma, lymphocytic type, dosed 104 weeks, study length 104 weeks) was 11800 mg/kg/day (inactive) and the TD50 (mouse, strain Charles River CD1, males, in feed, site: any site (literature study), lesion: benign tumor, dosed 104 weeks, study length 104 weeks) was 388 mg/kg/day (inactive). The TD50 (mouse, strain Charles River CD1, males, in feed, site: any site (literature study), lesion: malignant tumor, dosed 104 weeks, study length 104 weeks) was 1810 mg/kg/day (inactive), the TD50 (mouse, strain Charles River CD1, males, in feed, site: liver, lesion: hepatocellular adenocarcinoma, dosed 104 weeks, study length 104 weeks) was 61100 mg/kg/day (inactive) and the TD50 (mouse, strain Charles River CD1, males, in feed, site: liver, lesion: hepatocellular adenoma, dosed 104 weeks, study length 104 weeks) was 2150 mg/kg/day (inactive). The carcinogen call (mouse, strain Charles River CD1, males, in feed, site: lung, lesion: alveolar/bronchiolar adenocarcinoma, dosed 104 weeks, study length 104 weeks) was “negative (inactive)”, the TD50 (mouse, strain Charles River CD1, males, in feed, site: lung, lesion: alveolar/bronchiolar adenoma, dosed 104 weeks, study length 104 weeks) was 42500 mg/kg/day (inactive) and the carcinogen call (rat, strain F344/DuCrj, females, in drinking water, site: any site (literature study), lesion: one or several types, types not named, dosed 104 weeks, study length 112 weeks) was “negative (inactive)”. For the same compound, the carcinogen call (rat, strain F344/DuCrj, females, in drinking water, site: liver, lesion: neoplastic nodule, dosed 104 weeks, study length 112 weeks) was “negative (inactive)”, the TD50 (rat, strain F344/DuCrj, females, in drinking water, site: uterus, lesion: endometrial stromal polyp, dosed 104 weeks, study length 112 weeks) was 5780 mg/kg/day (inactive) and the TD50 (rat, strain F344/DuCrj, males, in drinking water, site: abdominal cavity, lesion: mesothelioma, dosed 104 weeks, study length 112 weeks) was 2820 mg/kg/day (inactive). For the same compound, the carcinogen call (rat, strain F344/DuCrj, males, in drinking water, site: any site (literature study), lesion: one or several types, types not named, dosed 104 weeks, study length 112 weeks) was “negative (inactive)”, the carcinogen call (rat, strain F344/DuCrj, males, in drinking water, site: liver, lesion: hepatocellular carcinoma, dosed 104 weeks, study length 112 weeks) was “negative (inactive)” and the carcinogen call (rat, strain F344/DuCrj, males, in drinking water, site: liver, lesion: neoplastic nodule, dosed 104 weeks, study length 112 weeks) was “negative (inactive)”. The carcinogen call (rat, strain Not specified, females, in feed, site: any site (literature study), lesion: several types, types named in the paper, dosed 64 weeks, study length 64 weeks) was “negative (inactive)”, the carcinogen call (rat, strain Not specified, females, in feed, site: liver, lesion: one or several types, types not named, dosed 64 weeks, study length 64 weeks) was “negative (inactive)” and the carcinogen call (rat, strain Not specified, males, in feed, site: any site (literature study), lesion: several types, types named in the paper, dosed 64 weeks, study length 64 weeks) was “negative (inactive)”. The carcinogen call (rat, strain Not specified, males, in feed, site: liver, lesion: one or several types, types not named, dosed 64 weeks, study length 64 weeks) was “negative (inactive)”, the carcinogen call (rat, strain Osborne-Mendel, both sexes, in feed, site: any site (literature study), lesion: malignant tumor, dosed 104 weeks, study length 104 weeks) was “negative (inactive)” and the carcinogen call (rat, strain Osborne-Mendel, both sexes, in feed, site: any site (literature study), lesion: several types, types named in the paper, dosed 104 weeks, study length 104 weeks) was “negative (inactive)”. For the same compound, the TD50 (rat, strain Osborne-Mendel, both sexes, in feed, site: liver, lesion: adenoma, dosed 104 weeks, study length 104 weeks) was 231000 mg/kg/day (inactive).

Work on O=C1c2ccccc2C(=O)c2c(O)c(O)cc(O)c21 yielded a TD50 (rat, strain Fischer 344, males, in feed, site: urinary bladder, lesion: malignant tumor, dosed 74 weeks, study length 74 weeks) of 678 mg/kg/day, a TD50 (rat, strain Fischer 344, males, in feed, site: urinary bladder, lesion: squamous-cell carcinoma, dosed 74 weeks, study length 74 weeks) of 3680 mg/kg/day and a TD50 (rat, strain Fischer 344, males, in feed, site: urinary bladder, lesion: transitional-cell carcinoma, dosed 74 weeks, study length 74 weeks) of 865 mg/kg/day.

For O=C1OC(=O)c2ccccc21, the carcinogen call (mouse, strain B6C3F1, females, in feed, site: any site (literature study), lesion: several types, types named in the paper, dosed 104 weeks, study length 104 weeks) was “negative (inactive)”, the carcinogen call (mouse, strain B6C3F1, males, in feed, site: any site (literature study), lesion: several types, types named in the paper, dosed 104 weeks, study length 104 weeks) was “negative (inactive)” and the TD50 (mouse, strain B6C3F1, males, in feed, site: liver, lesion: hepatocellular adenoma + hepatocellular carcinoma + neoplastic nodule, dosed 104 weeks, study length 104 weeks) was 7460 mg/kg/day. The TD50 (rat, strain Fischer 344, females, in feed, site: any site (literature study), lesion: several types, types named in the paper, dosed 105 weeks, study length 105 weeks) was 4500 mg/kg/day, the TD50 (rat, strain Fischer 344, females, in feed, site: lung, lesion: alveolar/bronchiolar adenoma, dosed 105 weeks, study length 105 weeks) was 6230 mg/kg/day (inactive) and the carcinogen call (rat, strain Fischer 344, males, in feed, site: any site (literature study), lesion: several types, types named in the paper, dosed 105 weeks, study length 105 weeks) was “negative (inactive)”.
